Reference: patent publication US20060069132A1, “Azolecarboxamide herbicides” (priority 2004, published 2006)

Experiments:
corn = assay: Test C pre-/postemergence herbicide test; type: in vivo, Zea mays
Procedure, shortened: (§1)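 Emerged plants at the 1- to 4-leaf stage (2–18 cm), or freshly planted seeds, received test chemicals in a non-phytotoxic solvent mixture with surfactant. Response was visually scored against controls after 12 to 14 days in the greenhouse, on a 0 (no effect) to 100 (complete control) scale.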

large crabgrass = assay: Test A pre-/postemergence herbicide test; type: in vivo, Digitaria sanguinalis
Procedure, shortened: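 Both application timings were run together: directed soil spray over freshly planted seeds in sandy loam, and runoff spray onto 2–10 cm seedlings. Evaluation after ~10 days in greenhouse used a 0–100 visual scale versus untreated controls.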

velvetleaf = assay: Test C pre-/postemergence herbicide test; type: in vivo, Abutilon theophrasti
Procedure, shortened: as §1

[1] = test system: common (oilseed) sunflower; assay: Test C pre-/postemergence herbicide test; type: in vivo, Helianthus annuus; settings: preemergence
Description: Seeds of plant species selected from bermudagrass (Cynodon dactylon (L.) Pers.), Surinam grass (Urochloa decumbens (Staph) R. D. Webster, previously named Brachiaria decumbens Stapf), cocklebur (Xanthium strumarium L.), corn (Zea mays L.), large crabgrass (Digitaria sanguinalis (L.) Scop.), woolly cupgrass (Eriochloa villosa (Thunb.) Kunth), giant foxtail (Setaria faberi Herrm.), goosegrass (Eleusine indica (L.) Gaertn.), johnsongrass (Sorghum halepense (L.) Pers.), kochia (Kochia scoparia (L.) Schrad.), lambsquarters (Chenopodium album L.), morningglory (Ipomoea coccinea L.), eastern black nightshade (Solanum ptycanthum Dunal), yellow nutsedge (Cyperus esculentus L.), pigweed (Amaranthus retroflexus L.), common ragweed (Ambrosia elatior L.), soybean (Glycine max (L.) Merr.), common (oilseed) sunflower (Helianthus annuus L.) and velvetleaf (Abutilon theophrasti Medik.) were planted and treated preemergence with test chemicals formulated in a non-phytotoxic solvent mixture which included a surfactant.
At the same time, plants selected from these crop and weed species and also winter barley (Hordeum vulgare L.), blackgrass (Alopecurus myosuroides Huds.), canarygrass (Phalaris minor Retz.), chickweed (Stellaria media (L.) Vill.), downy bromegrass (Bromus tectorum L.), green foxtail (Setaria viridis (L.) Beauv.), Italian ryegrass (Lolium multiflorum Lam.), wheat (Triticum aestivum L.), wild oat (Avenafatua L.) and windgrass (Apera spica-venti (L.) Beauv.) were treated with postemergence applications of some of the test chemicals formulated in the same manner. Plants ranged in height from 2 to 18 cm (1- to 4-leaf stage) for postemergence treatments. Plant species in the flooded paddy test consisted of rice (Oryza sativa), smallflower umbrella sedge (Cyperus difformis L.), ducksalad (Heteranthera limosa (Sw.) Willd.) and barnyardgrass (Echinochloa crus-galli (L.) Beauv.) grown to the 2-leaf stage for testing. Treated plants and controls were maintained in a greenhouse for 12 to 14 days, after which time all species were compared to controls and visually evaluated. Plant response ratings, summarized in Table C, are based on a scale of 0 to 100 where 0 is no effect and 100 is complete control. A dash (-) response means no test result.

woolly cupgrass = assay: Test C pre-/postemergence herbicide test; type: in vivo, Eriochloa villosa
Procedure, shortened: as §1

soybean = assay: Test C pre-/postemergence herbicide test; type: in vivo, Glycine max
Procedure, shortened: as §1

bermudagrass = assay: Test C pre-/postemergence herbicide test; type: in vivo, Cynodon dactylon
Procedure, shortened: as §1

rice [2] = assay: Test B pre-/postemergence herbicide test; type: in vivo, Oryza sativa; settings: preemergence
Procedure, shortened: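 Formulation: non-phytotoxic solvent mix with surfactant. Timing: preemergence on seed and postemergence on 2–18 cm plants, applied concurrently. Readout after 13–15 d greenhouse: visual 0–100 control rating against controls.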

rice [3] = assay: Test C flooded paddy test; type: in vivo, Oryza sativa; settings: for Plant response rating, Rice: 500 g ai/ha, visual rating after 12 to 14 days
Procedure, shortened: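 Injury scored visually against controls on a 0 (no effect) to 100 (complete control) scale, 12 to 14 days after treatment in greenhouse. Flooded paddy plants treated at 2-leaf stage; postemergence plants at 1- to 4-leaf stage, 2 to 18 cm tall.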

[4] = test system: smallflower umbrella sedge; assay: Test C flooded paddy test; type: in vivo, Cyperus difformis; settings: for Plant response rating, Sedge, Umbrella: 500 g ai/ha, visual rating after 12 to 14 days
[5] = 125 g ai/ha, scale 0 (no effect) to 100 (complete control), visual, 12 to 14 days, preemergence
[6] = 250 g ai/ha, scale 0 to 100 (0 no effect, 100 complete control), visual, 12 to 14 days, preemergence
[7] = Postemergence, 500 g ai/ha, 0 to 100 scale, 0 no effect, 100 complete control
[8] = Postemergence, 2000 g ai/ha, 0 to 100 scale, 0 no effect, 100 complete control
[9] = 31 g ai/ha, preemergence, scale 0 to 100
[10] = Postemergence, 250 g ai/ha, scale 0 to 100, 0 no effect, 100 complete control
[11] = postemergence, 125 g ai/ha, scale 0 to 100
[12] = postemergence, 62 g ai/ha, scale 0 to 100
[13] = 62 g ai/ha, scale 0 to 100 (0 no effect, 100 complete control)
[14] = 125 g ai/ha, scale of 0 to 100, 0 is no effect, 100 is complete control
[15] = 250 g ai/ha, scale of 0 to 100, 0 is no effect, 100 is complete control
[16] = scale 0 to 100 (0 no effect, 100 complete control)
[17] = Postemergence, 500 g ai/ha, scale 0 to 100
[18] = 125 g ai/ha, scale 0 to 100 (0 no effect, 100 complete control)
[19] = 62 g ai/ha, preemergence, scale 0 to 100
[20] = 250 g ai/ha, scale 0-100, preemergence
[21] = 500 g ai/ha, scale 0 to 100 (0 no effect, 100 complete control), visual, 12 to 14 days, preemergence

Structure (SMILES): CCCCn1nc(C(C)(C)C)cc1C(=O)Nc1cccc(C(=O)NCC)c1 [Compound 41]
- Plant response rating (0 = no effect, 100 = complete control), Corn (corn; 62 g ai/ha, preemergence): 0
- Plant response rating, Corn (corn; [5]): 0
- Plant response rating, Corn (corn; [6]): 0
- Plant response rating, Crabgrass, Large (large crabgrass; [7]): 20
- Plant response rating, Crabgrass, Large (large crabgrass; [8]): 60
- Crabgrass, Large plant response rating (large crabgrass; Preemergence, 500 g ai/ha, visual rating, 0 to 100 scale (0 no effect, 100 complete control)): 40
- Crabgrass, Large plant response rating (large crabgrass; Preemergence, 2000 g ai/ha, 0 to 100 scale, 0 no effect, 100 complete control): 80
- Plant response rating, Velvetleaf (velvetleaf; [9]): 0
- Plant response rating (0 = no effect, 100 = complete control), Velvetleaf (velvetleaf; 62 g ai/ha, preemergence): 40
- Plant response rating, Velvetleaf (velvetleaf; [5]): 40
- Plant response rating, Velvetleaf (velvetleaf; [6]): 100
- Plant response rating, Sunflower ([1]; 31 g ai/ha, scale 0 to 100): 0
- Plant response rating (0 = no effect, 100 = complete control), Sunflower ([1]; 62 g ai/ha): 0
- Plant response rating, Sunflower ([1]; 125 g ai/ha, scale 0 (no effect) to 100 (complete control), visual, 12 to 14 days): 0
- Plant response rating, Sunflower ([1]; 250 g ai/ha, scale 0 to 100 (0 no effect, 100 complete control), visual, 12 to 14 days): 0
- Plant response rating, Cupgrass, Woolly (woolly cupgrass; [9]): 0
- Plant response rating (0 = no effect, 100 = complete control), Cupgrass, Woolly (woolly cupgrass; 62 g ai/ha, preemergence): 0
- Plant response rating, Cupgrass, Woolly (woolly cupgrass; [5]): 0
- Plant response rating, Cupgrass, Woolly (woolly cupgrass; [6]): 30
- Plant response rating, Soybean (soybean; [9]): 0
- Plant response rating (0 = no effect, 100 = complete control), Soybean (soybean; 62 g ai/ha, preemergence): 0
- Plant response rating, Soybean (soybean; [5]): 0
- Plant response rating, Soybean (soybean; [6]): 10
- Plant response rating, Bermudagrass (bermudagrass; [9]): 30
- Plant response rating (0 = no effect, 100 = complete control), Bermudagrass (bermudagrass; 62 g ai/ha, preemergence): 30
- Plant response rating, Bermudagrass (bermudagrass; [5]): 50
- Plant response rating, Bermudagrass (bermudagrass; [6]): 100

Structure (SMILES): CCn1nc(C(C)(C)C)cc1C(=O)Nc1cccc(C(=O)OC)c1 [Compound 81]
- Plant response rating, Corn (corn; [10]): 40
- Plant response rating, Corn (corn; [11]): 40
- Plant response rating, Corn (corn; [12]): 40
- Plant response rating, Rice (rice [2]; 125 g ai/ha, 0 to 100 scale, 0 is no effect, 100 is complete control): 0
- Rice plant response rating (rice [3]; [13]): 20
- Rice plant response rating (rice [3]; [14]): 20
- Rice plant response rating (rice [3]; [15]): 30
- Plant response rating, Rice (rice [3]; [16]): 40
- Plant response rating, Velvetleaf (velvetleaf; [10]): 60
- Plant response rating, Velvetleaf (velvetleaf; [11]): 55
- Plant response rating, Velvetleaf (velvetleaf; [12]): 55
- Sedge, Umbrella plant response rating [4, 13]: 70
- Sedge, Umbrella plant response rating [4, 14]: 70
- Sedge, Umbrella plant response rating [4, 15]: 80
- Plant response rating, Sedge, Umbrella [4, 16]: 80
- Plant response rating, Cupgrass, Woolly (woolly cupgrass; [10]): 5
- Plant response rating, Cupgrass, Woolly (woolly cupgrass; [11]): 5
- Plant response rating, Cupgrass, Woolly (woolly cupgrass; [12]): 5
- Plant response rating, Soybean (soybean; [10]): 30
- Plant response rating, Soybean (soybean; [11]): 30
- Plant response rating, Soybean (soybean; [12]): 10
- Bermudagrass plant response rating (bermudagrass; Postemergence, 250 g ai/ha, scale 0 to 100): 20
- Plant response rating, Bermudagrass (bermudagrass; [11]): 0
- Plant response rating, Bermudagrass (bermudagrass; postemergence, 31 g ai/ha, scale 0 to 100): 0
- Plant response rating, Bermudagrass (bermudagrass; [12]): 0

Structure (SMILES): CCn1nc(C(C)(C)C)cc1C(=O)Nc1cccc(OC(F)(F)F)c1 [Compound 272]
- Corn plant response rating (corn; [17]): 20
- Plant response rating, Corn (corn; [10]): 15
- Plant response rating, Corn (corn; [11]): 15
- Plant response rating, Corn (corn; [12]): 10
- Crabgrass, Large plant response rating (large crabgrass; [7]): 55
- Plant response rating, Crabgrass, Large (large crabgrass; [8]): 90
- Crabgrass, Large plant response rating (large crabgrass; Preemergence, 2000 g ai/ha, visual rating, 0 to 100 scale (0 no effect, 100 complete control)): 100
- Crabgrass, Large plant response rating (large crabgrass; preemergence, 500 g ai/ha, visual injury, 0 to 100 scale (0 no effect, 100 complete control)): 85
- Rice plant response rating (0 to 100 scale) (rice [2]; 125 g ai/ha, 0 = no effect, 100 = complete control): 0
- Plant response rating, Rice (rice [2]; 500 g ai/ha, visual rating, 0 = no effect, 100 = complete control): 20
- Rice plant response rating (rice [3]; 62 g ai/ha, scale 0 to 100): 0
- Rice plant response rating (rice [3]; [18]): 10
- Rice plant response rating (rice [3]; [15]): 15
- Plant response rating, Rice (rice [3]; [16]): 20
- Velvetleaf plant response rating (velvetleaf; [17]): 100
- Plant response rating, Velvetleaf (velvetleaf; [10]): 100
- Plant response rating, Velvetleaf (velvetleaf; [11]): 95
- Plant response rating, Velvetleaf (velvetleaf; [12]): 85
- Sedge, Umbrella plant response rating ([4]; 62 g ai/ha, scale 0 to 100): 30
- Sedge, Umbrella plant response rating [4, 18]: 65
- Sedge, Umbrella plant response rating [4, 15]: 75
- Plant response rating, Sedge, Umbrella [4, 16]: 75
- Cupgrass, Woolly plant response rating (woolly cupgrass; [17]): 65
- Plant response rating, Cupgrass, Woolly (woolly cupgrass; [10]): 60
- Plant response rating, Cupgrass, Woolly (woolly cupgrass; [11]): 40
- Plant response rating, Cupgrass, Woolly (woolly cupgrass; [12]): 25
- Soybean plant response rating (soybean; [17]): 95
- Plant response rating, Soybean (soybean; [10]): 85
- Plant response rating, Soybean (soybean; [11]): 80
- Plant response rating, Soybean (soybean; [12]): 60
- Bermudagrass plant response rating (bermudagrass; [17]): 100
- Plant response rating, Bermudagrass (bermudagrass; [10]): 100
- Plant response rating, Bermudagrass (bermudagrass; [11]): 80
- Plant response rating, Bermudagrass (bermudagrass; [12]): 50

Structure (SMILES): CCN(CC)C(=O)c1cccc(NC(=O)c2nn(C(C)(C)C)nc2C)c1 [Compound 418]
- Plant response rating, Corn (corn; [19]): 0
- Plant response rating (0 = no effect, 100 = complete control), Corn (corn; 125 g ai/ha, preemergence): 10
- Plant response rating, Corn (corn; [20]): 40
- Plant response rating, Corn (corn; [21]): 80
- Plant response rating, Velvetleaf (velvetleaf; [19]): 90
- Plant response rating (0 = no effect, 100 = complete control), Velvetleaf (velvetleaf; 125 g ai/ha, preemergence): 95
- Plant response rating, Velvetleaf (velvetleaf; [21]): 100
- Plant response rating, Sunflower ([1]; 62 g ai/ha, scale 0 to 100): 0
- Plant response rating (0 = no effect, 100 = complete control), Sunflower ([1]; 125 g ai/ha): 0
- Plant response rating, Sunflower ([1]; 500 g ai/ha, scale 0 to 100 (0 no effect, 100 complete control), visual, 12 to 14 days): 0
- Plant response rating, Cupgrass, Woolly (woolly cupgrass; [19]): 0
- Plant response rating (0 = no effect, 100 = complete control), Cupgrass, Woolly (woolly cupgrass; 125 g ai/ha, preemergence): 0
- Plant response rating, Cupgrass, Woolly (woolly cupgrass; [20]): 10
- Plant response rating, Cupgrass, Woolly (woolly cupgrass; [21]): 95
- Plant response rating, Soybean (soybean; [19]): 0
- Plant response rating (0 = no effect, 100 = complete control), Soybean (soybean; 125 g ai/ha, preemergence): 20
- Plant response rating, Soybean (soybean; [21]): 90
- Plant response rating, Bermudagrass (bermudagrass; 62 g ai/ha, preemergence, scale 0 to 100, 0 no effect, 100 complete control): 100
- Plant response rating (0 = no effect, 100 = complete control), Bermudagrass (bermudagrass; 125 g ai/ha, preemergence): 100
- Plant response rating, Bermudagrass (bermudagrass; [20]): 100
- Plant response rating, Bermudagrass (bermudagrass; [21]): 100
